#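 1) Cells in 96-well plates. 2) Compound, 48 h, 5 concentrations. 3) Linear interpolation between surrounding doses. 4) Unreached endpoint = highest concentration. GI50 is the concentration that inhibits growth by half. TGI denotes the concentration required for complete inhibition of growth.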
# Columns and labels:
# Experiment in all cases: NCI-60 cell line screen, 48 h
# [1] = system: HL-60(TB) leukemia
# [2] = system: SF-539 CNS
# [3] = system: HS 578T breast
# [4] = system: TK-10 renal
# [5] = system: MDA-MB-435
# [6] = system: NCI-H23 lung
# [7] = system: CAKI-1 renal
# [8] = system: M14 melanoma
# [9] = system: RPMI-8226 leukemia
# [10] = system: OVCAR-3 ovarian
# [11] = system: KM12 colon
# [12] = system: NCI-H460 lung
# [13] = system: SNB-19 CNS
# [14] = system: HCT-116 colon
# [15] = system: 786-0 renal
# [16] = system: EKVX NSCLC
# [17] = system: SK-MEL-2 melanoma
# [18] = system: K-562 leukemia
# [19] = system: NCI-H226 lung
# [20] = system: MOLT-4 leukemia
# [21] = system: NCI-H522 lung
# [22] = system: SK-OV-3 ovarian
# [23] = system: OVCAR-5 ovarian
# [24] = system: DU-145 prostate
# [25] = system: U251 CNS
# [26] = system: SN12C renal
# [27] = system: LOX IMVI melanoma
# [28] = system: NCI/ADR-RES ovarian
# [29] = system: OVCAR-4 ovarian
# [30] = system: MDA-MB-231 breast
# [31] = system: SF-295 CNS
# [32] = system: UACC-257 melanoma
# [33] = system: HCC-2998 colon
# [34] = system: A549 NSCLC
# [35] = system: SR leukemia
# [36] = system: SK-MEL-5 melanoma
# [37] = system: HOP-62 NSCLC
# [38] = system: OVCAR-8 ovarian
# [39] = system: BT-549 breast
# [40] = system: PC-3 prostate
# [41] = system: HCT-15 colon
# [42] = system: SNB-75 CNS
# [43] = system: MCF7 breast
# [44] = system: HT29 colon
# [45] = system: A498 renal
# [46] = system: IGROV1 ovarian
# [47] = system: RXF 393 renal
# [48] = system: MALME-3M melanoma
# [49] = system: SK-MEL-28 melanoma
# [50] = system: UO-31 renal
# [51] = system: ACHN renal
# [52] = system: SF-268 CNS
# [53] = system: HOP-92 NSCLC
# [54] = system: SW-620 colon
# [55] = system: T-47D breast
# [56] = system: COLO 205 colon
# [57] = system: CCRF-CEM leukemia
# [58] = system: UACC-62 melanoma
# [59] = system: MDA-N
compound,measurement,setting,value
CN1CCN(Cc2ccc(NC(=O)c3cncc(C#Cc4cnc5cccnn45)c3)cc2C(F)(F)F)CC1,GI50,[1],818 nM
same,TGI,[1],2440 nM
same,GI50,[2],558 nM
same,TGI,[2],1330 nM
same,GI50,[3],922 nM
same,TGI,[3],3260 nM
same,GI50,[4],1880 nM
same,TGI,[4],6030 nM
same,GI50,[5],1130 nM
same,TGI,[5],3760 nM
same,GI50,[6],892 nM
same,TGI,[6],2320 nM
same,GI50,[7],1440 nM
same,TGI,[7],5220 nM
same,GI50,[8],1020 nM
same,TGI,[8],3340 nM
same,GI50,[9],1110 nM
same,TGI,[9],3050 nM
same,GI50,[10],1760 nM
same,TGI,[10],5500 nM
same,GI50,[11],8.63 nM
same,TGI,[11],2410 nM
same,GI50,[12],1270 nM
same,TGI,[12],3440 nM
same,GI50,[13],1800 nM
same,TGI,[13],5620 nM
same,GI50,[14],711 nM
same,TGI,[14],6040 nM
same,GI50,[15],1140 nM
same,TGI,[15],2730 nM
same,GI50,[16],1190 nM
same,TGI,[16],3490 nM
same,GI50,[17],639 nM
same,TGI,[17],1710 nM
same,GI50,[18],5 nM
same,TGI,[18],21600 nM
same,GI50,[19],286 nM
same,TGI,[19],2480 nM
same,GI50,[20],1420 nM
same,TGI,[20],5340 nM
same,GI50,[21],990 nM
same,TGI,[21],2720 nM
same,GI50,[22],1670 nM
same,TGI,[22],5210 nM
same,GI50,[23],1270 nM
same,TGI,[23],6040 nM
same,GI50,[24],1540 nM
same,TGI,[24],5340 nM
same,GI50,[25],1480 nM
same,TGI,[25],5420 nM
same,GI50,[26],1260 nM
same,TGI,[26],5200 nM
same,GI50,[27],1070 nM
same,TGI,[27],2980 nM
same,GI50,[28],1830 nM
same,TGI,[28],8100 nM
same,GI50,[29],732 nM
same,TGI,[29],3680 nM
same,GI50,[30],798 nM
same,TGI,[30],3870 nM
same,GI50,[31],1490 nM
same,TGI,[31],5420 nM
same,GI50,[32],1400 nM
same,TGI,[32],5040 nM
same,GI50,[33],1310 nM
same,TGI,[33],4240 nM
same,GI50,[34],1570 nM
same,TGI,[34],5050 nM
same,GI50,[35],1390 nM
same,TGI,[35],17600 nM
same,GI50,[36],1060 nM
same,TGI,[36],2420 nM
same,GI50,[37],1360 nM
same,TGI,[37],5080 nM
same,GI50,[38],1660 nM
same,TGI,[38],6300 nM
same,GI50,[39],1740 nM
same,TGI,[39],5650 nM
same,GI50,[40],1440 nM
same,TGI,[40],5750 nM
same,GI50,[41],1470 nM
same,TGI,[41],5300 nM
same,GI50,[42],914 nM
same,TGI,[42],1880 nM
same,GI50,[43],707 nM
same,TGI,[43],4770 nM
same,GI50,[44],963 nM
same,TGI,[44],5100 nM
same,GI50,[45],907 nM
same,TGI,[45],1860 nM
same,GI50,[46],1300 nM
same,TGI,[46],5590 nM
same,GI50,[47],783 nM
same,TGI,[47],1710 nM
same,GI50,[48],595 nM
same,TGI,[48],1420 nM
same,GI50,[49],1300 nM
same,TGI,[49],4630 nM
same,GI50,[50],1490 nM
same,TGI,[50],3780 nM
same,GI50,[51],1430 nM
same,TGI,[51],4900 nM
same,GI50,[52],1190 nM
same,TGI,[52],2810 nM
same,GI50,[53],492 nM
same,TGI,[53],3130 nM
same,GI50,[54],981 nM
same,TGI,[54],4340 nM
same,GI50,[55],2200 nM
same,TGI,[55],11900 nM
same,GI50,[56],1020 nM
same,TGI,[56],2910 nM
same,GI50,[57],1520 nM
same,TGI,[57],15200 nM
same,GI50,[58],1330 nM
same,TGI,[58],4460 nM
N/N=C(\N)SCc1ccc(N=C=S)cc1,TGI,[1],> 100000 nM
same,TGI,[2],> 100000 nM
same,TGI,[3],> 100000 nM
same,TGI,[4],> 100000 nM
same,TGI,[5],> 100000 nM
same,TGI,[6],> 100000 nM
same,TGI,[7],> 100000 nM
same,TGI,[9],> 100000 nM
same,TGI,[11],> 100000 nM
same,TGI,[12],> 100000 nM
same,TGI,[13],> 100000 nM
same,TGI,[14],> 100000 nM
same,TGI,[15],> 100000 nM
same,TGI,[16],> 100000 nM
same,TGI,[17],> 100000 nM
same,TGI,[18],> 100000 nM
same,TGI,[20],> 100000 nM
same,TGI,[21],> 100000 nM
same,TGI,[22],> 100000 nM
same,TGI,[23],> 100000 nM
same,TGI,[24],> 100000 nM
same,TGI,[25],> 100000 nM
same,TGI,[26],> 100000 nM
same,TGI,[27],> 100000 nM
same,TGI,[28],> 100000 nM
same,TGI,[29],> 100000 nM
same,TGI,[30],> 100000 nM
same,TGI,[31],> 100000 nM
same,TGI,[32],> 100000 nM
same,TGI,[33],> 100000 nM
same,TGI,[34],> 100000 nM
same,TGI,[35],> 100000 nM
same,TGI,[36],> 100000 nM
same,TGI,[37],> 100000 nM
same,TGI,[38],> 100000 nM
same,TGI,[40],> 100000 nM
same,TGI,[41],> 100000 nM
same,TGI,[42],> 100000 nM
same,TGI,[44],> 100000 nM
same,TGI,[45],> 100000 nM
same,TGI,[46],> 100000 nM
same,TGI,[47],> 100000 nM
same,TGI,[48],> 100000 nM
same,TGI,[49],> 100000 nM
same,TGI,[50],> 100000 nM
same,TGI,[51],> 100000 nM
same,TGI,[52],> 100000 nM
same,TGI,[53],> 100000 nM
same,TGI,[59],> 100000 nM
same,TGI,[54],> 100000 nM
same,TGI,[55],> 100000 nM
same,TGI,[56],> 100000 nM
same,TGI,[57],> 100000 nM
same,TGI,[58],> 100000 nM
